Experimental findings from patent US20230143604A1, “QW DOSING OF GIP RECEPTOR AGONIST PEPTIDE COMPOUNDS AND USES THEREOF” (TAKEDA PHARMACEUTICAL COMPANY LIMITED, priority 2020, published 2023) are described below.

Where two headings read alike, the source gives them in different places.

Data set [1] in a line: physchem. Summed up:
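Solubility at pH 7.4 determined by stepwise addition of 200 mM phosphate buffer in 100 μL increments to 3 mg peptide, mixing briefly each time, until no insoluble material remained, then measured by liquid chromatography.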

In data set [2] the target is T1, human GLP-1R (Homo sapiens, UniProt P43220).
T1 construct: HEK-293T cells overexpressing full-length human GLP-1R; FLAG (N); host or cells: HEK-293T
The data set can be described thus: Human GLP1R agonist activity, intracellular cAMP accumulation. The class given is cell-based. The note with it: HEK-293T cells overexpressing human GLP-1R, 1 hr. On the procedure: Cells are cultured per the manufacturer's protocol in DMEM with 10% fetal bovine serum and 1 μg/mL puromycin and stored in frozen aliquots to be used as assay ready cells. On the day of the assay, cells are removed from frozen storage, washed two times in 1× Kreb's Ringer Buffer (Zenbio, Research Triangle Park, N.C.), and re-suspended to a concentration of 4×10^5 cells/mL in 1× Kreb's Ringer Buffer. […] Cells are incubated with test compound for 1 hr at room temperature in the dark, and cAMP accumulation is measured using the Cisbio HiRange cAMP assay kit (Bedford, Mass.) per the manufacturer's protocol. Anti-cAMP antibody and d2-cAMP tracer reagents diluted in lysis/detection buffer are incubated in the dark for 1 hr, and results are measured on an Envision plate reader (Perkin Elmer, Waltham, Mass.). Data is normalized using 1 nm GLP-1 as 100% activity, and DMSO alone as 0% activity.

Where [3] appears, read: read-out: Human GLP1R cAMP EC50, HEK293T.

As a reminder, the solubility is the dissolved amount per volume that the medium holds. A lower solubility goes with a poorly soluble substance. Usually EC50 stands for the concentration needed to bring the measured effect to its halfway point.

T1 sequence (P43220 24-463): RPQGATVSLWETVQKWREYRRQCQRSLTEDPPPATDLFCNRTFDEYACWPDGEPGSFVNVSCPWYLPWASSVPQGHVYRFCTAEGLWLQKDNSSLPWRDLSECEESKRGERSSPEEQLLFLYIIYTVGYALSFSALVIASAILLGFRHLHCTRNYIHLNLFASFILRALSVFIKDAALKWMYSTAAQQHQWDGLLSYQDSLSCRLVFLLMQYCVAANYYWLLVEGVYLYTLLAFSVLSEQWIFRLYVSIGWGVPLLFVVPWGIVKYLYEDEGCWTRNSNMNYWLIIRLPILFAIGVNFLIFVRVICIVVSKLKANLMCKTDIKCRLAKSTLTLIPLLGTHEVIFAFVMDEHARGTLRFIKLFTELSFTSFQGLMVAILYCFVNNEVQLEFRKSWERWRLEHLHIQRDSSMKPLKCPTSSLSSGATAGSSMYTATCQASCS

On to `CC[C@H](C)[C@H](NC(=O)[C@H](CO)NC(=O)[C@H](Cc1ccc(O)cc1)NC(=O)[C@H](CC(=O)O)NC(=O)[C@H](CO)NC(=O)[C@@H](NC(=O)[C@H](Cc1ccccc1)NC(=O)[C@@H](NC(=O)CNC(=O)[C@H](CCC(=O)O)NC(=O)C(C)(C)NC(=O)[C@H](Cc1ccc(O)cc1)NC)[C@@H](C)O)[C@@H](C)CC)C(=O)N[C@@H](C)C(=O)N[C@@H](CCCCNC(=O)CNC(=O)CNC(=O)CNC(=O)CNC(=O)CNC(=O)CCCCCCCCCCCCCCCCC(=O)O)C(=O)N[C@@H](CC(=O)O)C(=O)N[C@@H](CO)C(=O)NC(C)(C)C(=O)N[C@@H](C)C(=O)N[C@@H](CCC(N)=O)C(=O)NC(C)(C)C(=O)N[C@@H](CC(=O)O)C(=O)N[C@@H](Cc1ccccc1)C(=O)N[C@H](C(=O)N[C@@H](CC(N)=O)C(=O)N[C@@H](Cc1c[nH]c2ccccc12)C(=O)N[C@@H](CC(C)C)C(=O)N[C@@H](CC(C)C)C(=O)N[C@@H](C)C(=O)N[C@@H](CCC(N)=O)C(=O)N[C@@H](CO)C(=O)NCC(=O)O)C(C)C` [Compound 60], for which the solubility in data set [1] (pH 7.4) is not below 15 mg/mL; in data set [1] (pH 7.4, aqueous buffer), not below 30 mg/mL. For the same compound, the EC50 in data set [2] (setting [3]) came to 100 nM.
The matching figures for `CC[C@H](C)[C@H](NC(=O)[C@H](Cc1ccccc1)NC(=O)[C@@H](NC(=O)CNC(=O)[C@H](CCC(=O)O)NC(=O)C(C)(C)NC(=O)[C@H](Cc1ccc(O)cc1)NC)[C@@H](C)O)C(=O)N[C@@H](CO)C(=O)N[C@@H](CC(=O)O)C(=O)N[C@@H](Cc1ccc(O)cc1)C(=O)N[C@@H](CO)C(=O)N[C@H](C(=O)NC(C)(C)C(=O)N[C@@H](CCCCNC(=O)CNC(=O)CNC(=O)CNC(=O)CNC(=O)CNC(=O)CCCCCCCCCCCCCCCC(=O)O)C(=O)N[C@@H](CC(=O)O)C(=O)N[C@@H](CCCNC(=N)N)C(=O)NC(C)(C)C(=O)N[C@@H](C)C(=O)N[C@@H](CCC(N)=O)C(=O)NC(C)(C)C(=O)N[C@@H](CC(=O)O)C(=O)N[C@@H](Cc1ccccc1)C(=O)N[C@H](C(=O)N[C@@H](CC(N)=O)C(=O)N[C@@H](Cc1c[nH]c2ccccc12)C(=O)N[C@@H](CC(C)C)C(=O)N[C@@H](CC(C)C)C(=O)N[C@@H](C)C(=O)N[C@@H](CCC(N)=O)C(=O)N[C@@H](CCCNC(=N)N)C(=O)NCC(=O)O)C(C)C)[C@@H](C)CC` [Compound 98]: not below 15 mg/mL, not below 30 mg/mL and 112 nM.
`CC[C@H](C)[C@H](NC(=O)[C@H](CO)NC(=O)[C@H](Cc1ccc(O)cc1)NC(=O)[C@H](CC(=O)O)NC(=O)[C@H](CO)NC(=O)[C@@H](NC(=O)[C@H](Cc1ccccc1)NC(=O)[C@@H](NC(=O)CNC(=O)[C@H](CCC(=O)O)NC(=O)C(C)(C)NC(=O)[C@H](Cc1ccc(O)cc1)NC)[C@@H](C)O)[C@@H](C)CC)C(=O)N[C@@H](C)C(=O)N[C@@H](CCCCNC(=O)CNC(=O)CNC(=O)CNC(=O)CNC(=O)CNC(=O)CCCCCCCCCCCCCCCCCCC(=O)O)C(=O)N[C@@H](CC(=O)O)C(=O)N[C@@H](CCCNC(=N)N)C(=O)NC(C)(C)C(=O)N[C@@H](C)C(=O)N[C@@H](CCC(N)=O)C(=O)NC(C)(C)C(=O)N[C@@H](CC(N)=O)C(=O)N[C@@H](Cc1ccccc1)C(=O)N[C@H](C(=O)N[C@@H](CC(N)=O)C(=O)N[C@@H](Cc1c[nH]c2ccccc12)C(=O)N[C@@H](CC(C)C)C(=O)N[C@@H](CC(C)C)C(=O)N[C@@H](C)C(=O)N[C@@H](CCC(N)=O)C(=O)N[C@@H](CO)C(=O)N1CCC[C@H]1C(=O)N[C@@H](CO)C(=O)N[C@@H](CO)C(=O)NCC(=O)N[C@@H](C)C(=O)N1CCC[C@H]1C(=O)N1CCC[C@H]1C(=O)N1CCC[C@H]1C(=O)N[C@@H](CO)C(=O)O)C(C)C` [Compound 112]: the solubility in data set [1] (pH 7.4, aqueous buffer, pH 7.4 Phosphate Buffer - Solubility, 200 mM Phosphate buffer pH 7.4) is not below 30 mg/mL; in data set [1] (pH 7.4, solubility in phosphate buffer at pH 7.4, 200 mM phosphate buffer pH 7.4), not below 15 mg/mL. In data set [2] (Human GLP1R cAMP EC50, HEK293T (nM)), this compound gave an EC50 of 21.4 nM.
Turning to `CC[C@H](C)[C@H](NC(=O)[C@H](Cc1ccccc1)NC(=O)[C@@H](NC(=O)CNC(=O)[C@H](CCC(=O)O)NC(=O)C(C)(C)NC(=O)[C@H](Cc1ccc(O)cc1)NC)[C@@H](C)O)C(=O)N[C@@H](CO)C(=O)N[C@@H](CC(=O)O)C(=O)N[C@@H](Cc1ccc(O)cc1)C(=O)N[C@@H](CO)C(=O)N[C@H](C(=O)NC(C)(C)C(=O)N[C@@H](CC(C)C)C(=O)N[C@@H](CC(=O)O)C(=O)N[C@@H](CO)C(=O)N[C@@H](CCCCNC(=O)CNC(=O)CNC(=O)CNC(=O)CNC(=O)CNC(=O)CCCCCCCCCCCCCCCCC(=O)O)C(=O)N[C@@H](C)C(=O)N[C@@H](CCC(N)=O)C(=O)NC(C)(C)C(=O)N[C@@H](CC(=O)O)C(=O)N[C@@H](Cc1ccccc1)C(=O)N[C@H](C(=O)N[C@@H](CC(N)=O)C(=O)N[C@@H](Cc1c[nH]c2ccccc12)C(=O)N[C@@H](CC(C)C)C(=O)N[C@@H](CC(C)C)C(=O)N[C@@H](C)C(=O)N[C@@H](CCC(N)=O)C(=O)N[C@@H](CCCCN)C(=O)NCC(=O)O)C(C)C)[C@@H](C)CC` [Compound 77], the solubility in data set [1] (pH 7.4) was not below 15 mg/mL; in data set [1] (pH 7.4, aqueous buffer), not below 30 mg/mL. The EC50 in data set [2] (setting [3]) came to 17 nM.
The like results for `CC[C@H](C)[C@H](NC(=O)[C@H](CO)NC(=O)[C@H](Cc1ccc(O)cc1)NC(=O)[C@H](CC(=O)O)NC(=O)[C@H](CO)NC(=O)[C@@H](NC(=O)[C@H](Cc1ccccc1)NC(=O)[C@@H](NC(=O)CNC(=O)[C@H](CCC(=O)O)NC(=O)C(C)(C)NC(=O)[C@H](Cc1ccc(O)cc1)NC)[C@@H](C)O)[C@@H](C)CC)C(=O)N[C@@H](C)C(=O)N[C@@H](CCCCNC(=O)CNC(=O)CNC(=O)CNC(=O)CNC(=O)CNC(=O)CCCCCCCCCCCCCCCCC(=O)O)C(=O)N[C@@H](CC(=O)O)C(=O)N[C@@H](CCCNC(=N)N)C(=O)NC(C)(C)C(=O)N[C@@H](C)C(=O)N[C@@H](CCC(N)=O)C(=O)N[C@@H](CCCNC(=N)N)C(=O)N[C@@H](CC(=O)O)C(=O)N[C@@H](Cc1ccccc1)C(=O)N[C@H](C(=O)N[C@@H](CCC(=O)O)C(=O)N[C@@H](Cc1c[nH]c2ccccc12)C(=O)N[C@@H](CC(C)C)C(=O)N[C@@H](CC(C)C)C(=O)N[C@@H](C)C(=O)N[C@@H](CCC(N)=O)C(=O)N[C@@H](CO)C(=O)N1CCC[C@H]1C(=O)NCC(=O)O)C(C)C` [Compound 120] were, in that order, not below 15 mg/mL, not below 30 mg/mL and 15.8 nM.
Regarding `CC[C@H](C)[C@H](NC(=O)[C@H](Cc1ccccc1)NC(=O)[C@@H](NC(=O)CNC(=O)[C@H](CCC(=O)O)NC(=O)C(C)(C)NC(=O)[C@@H](N)Cc1ccc(O)cc1)[C@@H](C)O)C(=O)N[C@@H](CO)C(=O)N[C@@H](CC(=O)O)C(=O)N[C@@H](Cc1ccc(O)cc1)C(=O)N[C@@H](CO)C(=O)N[C@H](C(=O)NC(C)(C)C(=O)N[C@@H](CCCCNC(=O)CNC(=O)CNC(=O)CNC(=O)CNC(=O)CNC(=O)CCCCCCCCCCCCCCCCC(=O)O)C(=O)N[C@@H](CC(=O)O)C(=O)N[C@@H](CO)C(=O)NC(C)(C)C(=O)N[C@@H](C)C(=O)N[C@@H](CCC(N)=O)C(=O)N[C@@H](C)C(=O)N[C@@H](CC(=O)O)C(=O)N[C@@H](Cc1ccccc1)C(=O)N[C@H](C(=O)N[C@@H](CC(N)=O)C(=O)N[C@@H](Cc1c[nH]c2ccccc12)C(=O)N[C@@H](CC(C)C)C(=O)N[C@@H](CC(C)C)C(=O)N[C@@H](C)C(=O)N[C@@H](CCC(N)=O)C(=O)N[C@@H](CCCNC(=N)N)C(=O)NCC(=O)O)C(C)C)[C@@H](C)CC` [Compound 152], the solubility is not below 15 mg/mL in data set [1] (pH 7.4) and not below 30 mg/mL in data set [1] (pH 7.4, aqueous buffer). For the same compound, in data set [2] (setting [3]), the EC50 amounted to 33.1 nM.
As for `CC[C@H](C)[C@H](NC(=O)[C@H](Cc1ccccc1)NC(=O)[C@@H](NC(=O)CNC(=O)[C@H](CCC(=O)O)NC(=O)C(C)(C)NC(=O)[C@@H](N)Cc1ccc(O)cc1)[C@@H](C)O)C(=O)N[C@@H](CO)C(=O)N[C@@H](CC(=O)O)C(=O)N[C@@H](Cc1ccc(O)cc1)C(=O)N[C@@H](CO)C(=O)N[C@H](C(=O)NC(C)(C)C(=O)N[C@@H](CCCCNC(=O)CNC(=O)CNC(=O)CNC(=O)CNC(=O)CNC(=O)CCCCCCCCCCCCCCCCC(=O)O)C(=O)N[C@@H](CC(=O)O)C(=O)N[C@@H](CO)C(=O)NC(C)(C)C(=O)N[C@@H](C)C(=O)N[C@@H](CCC(N)=O)C(=O)NC(C)(C)C(=O)N[C@@H](CC(=O)O)C(=O)N[C@@H](Cc1ccccc1)C(=O)N[C@H](C(=O)N[C@@H](CC(N)=O)C(=O)N[C@@H](Cc1c[nH]c2ccccc12)C(=O)N[C@@H](CC(C)C)C(=O)N[C@@H](CC(C)C)C(=O)N[C@@H](C)C(=O)N[C@@H](CCC(N)=O)C(=O)N[C@@H](CCCNC(=N)N)C(=O)NCC(=O)O)C(C)C)[C@@H](C)CC` [Compound 150], the solubility is not below 15 mg/mL in data set [1] (pH 7.4) and not below 30 mg/mL in data set [1] (pH 7.4, aqueous buffer). Moreover, the EC50 in data set [2] (setting [3]) amounted to 13.5 nM.
